Measurements from patent US20080003282A1, “Antiparasitical agents and methods for treating, preventing and controlling external parasites in animals” (priority 2005, published 2008).
Like-named read-outs stand apart in the source and are kept apart here.

Experiments:
[1] = type: physicochemical
Protocol: In Vitro Degradation Studies
A solution containing thioamide derivative of fipronil (“TD-fipronil”) in a solution of CH3CN/H2O (50:50 v/v) and the solution was subjected to the following degradation agents: an acid (0.5 N HCl); a base (0.5 N NaOH); fluorescent light; heat (65° C.); an oxidizer (5% H2O2); and UV light. The identity of fipronil formed was confirmed via HPLC with UV detection and HPLC with diode array detection.

[2] = design: species or system dogs; settings: dog, po, 10 mg/kg
Protocol: In Vivo Degradation Study—Oral Administration
An oral formulation (solution) comprising 100 mg/ml of thioamide derivatives of fipronil dissolved in 60:40 propylene glycol: glycerol formal was orally administered to dogs at a dosage rate of 10 mg/kg and the concentration of fipronil in blood plasma measured at 6 hours, day 1, day 2, and day 7 and is presented below

## NC(=S)c1nn(-c2c(Cl)cc(C(F)(F)F)cc2Cl)c(N)c1[S+]([O-])C(F)(F)F (stereo not shown) [TD-fipronil]
[1]
  degradation product formed: fipronil sulfone
  stability in acid: stable in acid
[1]; Acid (0.5 N HCl), 4 days
  fipronil formed: being degraded in 4 days; negligible amounts
[1]; Base (0.5 N NaOH)
  fipronil formed: no fipronil was formed
[1]; Oxidation (5% H2O2)
  fipronil formed: no fipronil was formed
[1]; UV light
  sensitivity to light: very sensitive to light
[2]
  in vivo degradation into fipronil judged against efficacy: degrades into fipronil in vivo in amounts that are sufficient for efficacy against fleas and ticks
